Earlier results, collected in patent US9023888B2, “Composition of monoterpenoids having bactericidal properties” (priority 2011, dated 2015).

Columns and labels:
[1] = system: Staph. aureus; conditions: broth dilution
[2] = system: E. coli; conditions: for E. coli MBC (v/v %) / E. coli MBC ppm / E. coli MIC (v/v %) / E. coli MIC ppm: broth dilution

Row | SMILES | Staph. aureus MBC (v/v %) [1] [v/v %] | Staph. aureus MBC ppm [1] | Staph. aureus MIC (v/v %) [1] [v/v %] | Staph. aureus MIC ppm [1] | antibacterial activity (summary of Table 2 in words) ([2]; E. coli and Staph. aureus data of Table 2) | E. coli MBC (v/v %) [2] [v/v %] | E. coli MBC ppm [2] | E. coli MIC (v/v %) [2] [v/v %] | E. coli MIC ppm [2]
1 | Cc1ccc(C(C)C)cc1 [p-cymene] | >8.0 | No level | >8.0 | No level | no effect at all | >8.0 | No level | >8.0 | No level
2 | CC1=CCC(C(C)(C)O)CC1 (centres unmarked) [∝-terpineol] | 0.25 | 2500 ppm | 0.25 | 2500 ppm | – | 0.06 | 600 ppm | 0.06 | 600 ppm
